# Source: article PMC11323223 (Bioorganic chemistry, 2022)
# Where two headings read alike, the source gives them in different places.
# Columns and labels:
# FABP3 [1] = target: T1, FABP3 (Homo sapiens, UniProt P05413); conditions: read-out: FABP3 Ki; cited from earlier work
# FABP7 [2] = target: T2, FABP7 (Homo sapiens, UniProt O15540); conditions: read-out: FABP7 Ki; cited from earlier work
# [3] = tested on: CFA-induced thermal hyperalgesia; assay: CFA-induced thermal hyperalgesia; type: in vivo; conditions: 20 mg/kg, i.p., mice, 90 min after administration, n = 6
# FABP3 [4] = target: T1, FABP3; assay: Fluorescence displacement binding assay; conditions: read-out: FABP3 Ki; average ± S.E. of at least three independent experiments
# FABP7 [5] = target: T2, FABP7; assay: Fluorescence displacement binding assay; conditions: for Ki: read-out: FABP7 Ki, average ± S.E. of at least three independent experiments; for FABP7/3 SI (selectivity index): FABP7 over FABP3, from Ki values; for FABP7/5 SI (selectivity index): FABP7 over FABP5, from Ki values
# FABP5 = FABP5 (Homo sapiens, UniProt Q01469); assay: Fluorescence displacement binding assay; conditions: for FABP5/3 SI (selectivity index): FABP5 over FABP3, from Ki values; for Ki: read-out: FABP5 Ki, average ± S.E. of at least three independent experiments
# FABP5, sequence (Q01469 whole entry): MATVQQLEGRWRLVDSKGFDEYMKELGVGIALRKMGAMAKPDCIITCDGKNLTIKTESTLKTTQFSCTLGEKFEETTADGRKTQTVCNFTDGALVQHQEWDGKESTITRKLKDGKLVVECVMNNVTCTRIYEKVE
# T2 sequence (O15540 whole entry): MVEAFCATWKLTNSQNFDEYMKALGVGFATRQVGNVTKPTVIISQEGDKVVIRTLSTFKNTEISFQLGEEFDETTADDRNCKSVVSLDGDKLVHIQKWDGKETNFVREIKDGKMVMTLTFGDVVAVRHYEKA
# T1 sequence (P05413 whole entry): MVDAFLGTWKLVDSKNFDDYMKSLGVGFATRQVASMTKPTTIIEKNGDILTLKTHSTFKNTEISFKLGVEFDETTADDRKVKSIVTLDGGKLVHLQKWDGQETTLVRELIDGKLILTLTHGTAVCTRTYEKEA
SMILES,Ki (FABP3 [1]) [µM],Ki (FABP7 [2]) [µM],effect on thermal hyperalgesia [3],Ki (FABP3 [4]) [µM],Ki (FABP7 [5]) [µM],FABP5/3 SI (selectivity index) (FABP5),"FABP5/7 SI (selectivity index) (FABP5; FABP5 over FABP7, from Ki values)",Ki (FABP5) [µM],FABP7/3 SI (selectivity index) (FABP7 [5]),FABP7/5 SI (selectivity index) (FABP7 [5])
"O=C(O)C1C(c2ccccc2)C(C(=O)Oc2cccc3ccccc23)C1c1ccccc1 (stereo not drawn) [L1, α-truxillic acid 1‑naphthyl ester]",2.7 ± 0.42,0.45 ± 0.07,,,,,,,,
COc1ccccc1C1[C@H](C(=O)O)[C@H](c2ccccc2OC)[C@H]1C(=O)Oc1cccc2ccccc12 (some centres unmarked) [L2],0.69 ± 0.17,0.67 ± 0.04,,,,,,,,
COc1ccccc1C1[C@H](C(=O)O)[C@H](c2ccccc2OC)[C@H]1C(=O)OCC1c2ccccc2-c2ccccc21 (some centres unmarked) [L3],25.3 ± 4.57,14.3 ± 0.41,,,,,,,,
"COc1ccccc1C1C(C(=O)O)C(c2ccccc2OC)C1C(=O)OC1Cc2ccccc2C1 (stereo not drawn) [α-16, α-3-(2,3-Dihydro-1H-inden-2-yloxycarbonyl)-2,4-bis(2-methoxyphenyl)cyclobutane-1-carboxylic acid]",,,full reversal of hyperalgesia,53.8 ± 7.28,21.8 ± 4.22,,,,,
"COc1ccccc1C1C(C(=O)O)C(c2ccccc2OC)C1C(=O)Oc1cccc(-c2ccc(F)cc2)c1 (centres unmarked) [γ-13, γ-3-(4′-Fluoro-1,1′-biphenyl-3-yloxycarbonyl)-2,4-bis(2-methoxyphenyl)-cyclobutane-1-carboxylic acid]",,,,6.1 ± 1.34,3.59 ± 0.24,3.4,2.0,1.77 ± 0.02,,
"COc1ccccc1C1C(C(=O)O)C(c2ccccc2OC)C1C(=O)Oc1cccc(-c2ccc3c(c2)OCCO3)c1 (centres unmarked) [γ-17, γ-3-(3-(2,3-Dihydrobenzo[b][1,4]dioxin-6-yl)phenoxycarbonyl)-2,4-bis(2-methoxyphenyl)cyclobutane-1-carboxylic acid]",,,,8.18 ± 2.67,5.12 ± 0.32,,,3.69 ± 0.65,,
"COc1ccccc1C1C(C(=O)O)C(c2ccccc2OC)C1C(=O)Oc1cccc(-c2ccc(C#N)cc2)c1 (centres unmarked) [γ-20, γ-3-(4′-Cyano-1,1′-biphenyl-3-yloxycarbonyl)-2,4-bis(2-methoxyphenyl)-cyclobutane-1-carboxylic acid]",,,,27.9 ± 6.37,9.11 ± 1.47,,,2.46 ± 0.19,,
"N#Cc1ccc(-c2ccccc2OC(=O)C2C(c3ccccc3)C(C(=O)O)C2c2ccccc2)cc1 (centres unmarked) [γ-102, γ-3-(4′-Cyano-1,1′-biphenyl-2-yloxycarbonyl)-2,4-diphenylcyclobutane-1-carboxylic acid]",,,,5.78 ± 1.3,0.95 ± 0.05,4.2,,1.39 ± 0.07,6.1,1.5
"O=C1Cc2cc(-c3cccc(OC(=O)C4C(c5ccccc5)C(C(=O)O)C4c4ccccc4)c3)ccc2N1 (centres unmarked) [γ-104, γ-3-(3-(2-Oxoindolin-5-yl)phenoxycarbonyl)-2,4-diphenylcyclobutane-1-carboxylic acid]",,,,2.74 ± 0.44,4.12 ± 0.32,,,2.21 ± 0.43,,
"COc1ccccc1C1C(C(=O)O)C(c2ccccc2OC)C1C(=O)Oc1ccccc1-c1ccc(C#N)cc1 (centres unmarked) [γ-105, γ-3-(4′-Cyano-1,1′-biphenyl-2-yloxycarbonyl)-2,4-bis(2-methoxyphenyl)cyclobutane-1-carboxylic acid]",,,,3.39 ± 0.63,1 ± 0.17,,,2.81 ± 0.57,,
"O=C(O)C1C(c2ccccc2)C(C(=O)Oc2cccc(-c3ccc4ccc(=O)[nH]c4c3)c2)C1c1ccccc1 (centres unmarked) [γ-108, γ-3-(3-(2-Oxo-1,2-dihydroquinolin-7-yl)phenoxycarbonyl)-2,4-diphenylcyclobutane-1-carboxylic acid]",,,,4.02 ± 0.36,13.8 ± 1.3,,,10.9 ± 2.81,,
"COc1ccccc1C1C(C(=O)O)C(c2ccccc2OC)C1C(=O)Oc1ccc(OC)c2ccccc12 (centres unmarked) [γ-109, γ-3-(4-Methoxynaphthalen-1-yloxycarbonyl)-2,4-bis(2-methoxyphenyl)cyclobutane-1-carboxylic acid]",,,,3.5 ± 0.63,0.47 ± 0.08,,,26.6 ± 1.88,7.4,56.6
"O=C(O)C1C(c2ccccc2)C(C(=O)OCc2ccccc2-c2ccccc2)C1c1ccccc1 (centres unmarked) [ε-11, ε-3-(1,1′-Biphenyl-2-ylmethoxycarbonyl)-2,4-diphenylcyclobutane-1-carboxylic acid]",,,,4.55 ± 0.64,0.18 ± 0.01,,,1.45 ± 0.26,25.3,8.1
"O=C(O)C1C(c2ccccc2)C(C(=O)OCc2cccc3ccccc23)C1c1ccccc1 (centres unmarked) [ε-23, ε-3-(Naphthalen-1-ylmethoxycarbonyl)-2,4-diphenylcyclobutane-1-carboxylic acid]",,,,7.42 ± 1.38,0.86 ± 0.04,,,5.08 ± 0.62,,
"O=C(O)C1C(c2ccccc2)C(C(=O)OCc2ccccc2-c2ccccc2)C1c1ccccc1 (centres unmarked) [ε-201, ε-3-(1,1′-Biphenyl-2-ylmethoxycarbonyl)-2,4-diphenylcyclobutane-1-carboxylic acid]",,,,3.4 ± 0.54,0.68 ± 0.16,,,1.65 ± 0.22,5.0,2.4
"O=C(O)C1C(c2ccccc2)C(C(=O)Oc2cccc(-c3ccc4c(c3)OCCO4)c2)C1c1ccccc1 (centres unmarked) [ε-203, ε-3-(3-(2,3-Dihydrobenzo[b][1,4]dioxin-6-yl)phenoxycarbonyl)-2,4-diphenyl-cyclobutane-1-carboxylic acid]",,,,7.84 ± 0.7,1.49 ± 0.15,,,3.15 ± 0.28,,
